Results on twelve molecules are retold here after patent US11427548B2 (Arvinas Operations, Inc., priority 2015, dated 2022).

In the assay the target is T1, Androgen Receptor (Homo sapiens, UniProt P10275).
T1 construct: endogenous in cells; host or cells: VCaP cells
T1 sequence (P10275 1-920): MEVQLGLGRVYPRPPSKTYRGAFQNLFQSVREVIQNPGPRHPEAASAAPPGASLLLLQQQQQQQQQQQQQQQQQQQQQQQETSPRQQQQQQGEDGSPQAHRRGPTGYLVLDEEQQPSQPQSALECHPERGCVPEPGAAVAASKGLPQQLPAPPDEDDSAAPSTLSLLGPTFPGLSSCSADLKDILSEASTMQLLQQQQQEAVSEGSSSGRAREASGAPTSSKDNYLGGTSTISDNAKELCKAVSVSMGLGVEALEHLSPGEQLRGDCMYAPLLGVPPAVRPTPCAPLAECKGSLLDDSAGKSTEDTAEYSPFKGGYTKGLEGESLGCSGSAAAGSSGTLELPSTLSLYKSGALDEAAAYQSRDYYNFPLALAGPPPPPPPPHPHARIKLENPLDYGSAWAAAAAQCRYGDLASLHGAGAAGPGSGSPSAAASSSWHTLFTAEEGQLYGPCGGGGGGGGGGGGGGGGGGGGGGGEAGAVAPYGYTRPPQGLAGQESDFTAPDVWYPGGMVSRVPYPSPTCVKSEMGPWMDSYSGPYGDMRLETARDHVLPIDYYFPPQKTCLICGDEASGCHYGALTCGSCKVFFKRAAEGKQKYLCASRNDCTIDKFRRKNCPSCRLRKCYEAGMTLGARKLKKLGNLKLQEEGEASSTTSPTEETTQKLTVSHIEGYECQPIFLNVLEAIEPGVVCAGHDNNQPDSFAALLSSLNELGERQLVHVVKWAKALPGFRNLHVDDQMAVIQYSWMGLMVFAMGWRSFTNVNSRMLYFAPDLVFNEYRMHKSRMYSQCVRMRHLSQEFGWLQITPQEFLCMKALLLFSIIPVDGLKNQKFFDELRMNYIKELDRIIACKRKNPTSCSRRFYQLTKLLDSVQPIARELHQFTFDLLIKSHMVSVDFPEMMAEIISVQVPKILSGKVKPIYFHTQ
The assay is described as follows: Androgen Receptor ELISA assay (PathScan AR ELISA) in VCaP cells: AR degradation, Dmax and DC50. Type of assay: cell-based. Particulars: Table 36; for DC50: read-out: VCaP DC50; for Dmax: VCaP. The method in brief:
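VCaP cells in phenol red-free RPMI with 5% charcoal-stripped FBS were grown at least 3 days, then given compound as 7 half-log doses in 0.1% DMSO with 0.1 nM R1881 for 24 h. Lysates went into a sandwich AR ELISA with TMB read at 450 nm.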

Where [1] appears, read: read-out: VCaP Dmax (%), VCaP cells.
Where [2] appears, read: VCaP cells, read-out: VCaP Dmax (%).

Where two headings read alike, the source gives them in different places.

`Cc1ncsc1-c1ccc(CNC(=O)[C@@H]2C[C@@H](O)CN2C(=O)[C@@H](C(C)C)N2Cc3ccc(N4CCN(CCCc5ccc(C(=O)N[C@H]6C(C)(C)[C@H](Oc7ccc(C#N)c(C(F)(F)F)c7)C6(C)C)cc5)CC4)cc3C2=O)cc1` [Example 761, (2S,4R)-1-((R)-2-(6-(4-(3-(4-(((1r,3r)-3-(4-cyano-3-(trifluoromethyl)phenxoy)-2,2,4,4-tetramethylcyclobutyl)carbamoyl)phenyl)propyl)piperazin-1-yl)-1-oxoisoindolin-2-yl)-3-methylbutanoyl)-4-hydroxy-N-(4-(4-methylthiazol-5-yl)benzyl)pyrrolidine-2-carboxamide]: the DC50 (usually the concentration giving 50% degradation) (VCaP cells) was over 501 nM. The Dmax – broadly, the largest share of the target that was removed – under setting [1] is under 25%.
For `Cc1ncsc1-c1ccc(CNC(=O)[C@@H]2C[C@@H](O)CN2C(=O)[C@H](C(C)C)N2Cc3ccc(N4CCN(CCCc5ccc(C(=O)N[C@H]6C(C)(C)[C@H](Oc7ccc(C#N)c(C(F)(F)F)c7)C6(C)C)cc5)CC4)cc3C2=O)cc1` [Example 762, (2S,4R)-1-((S)-2-(6-(4-(3-(4-(((1r,3r)-3-(4-cyano-3-(trifluoromethyl)phenoxy)-2,2,4,4-tetramethylcyclobutyl)carbamoyl)phenyl)propyl)piperazin-1-yl)-1-oxoisoindolin-2-yl)-3-methylbutanoyl)-4-hydroxy-N-(4-(4-methylthiazol-5-yl)benzyl)pyrrolidine-2-carboxamide] the same measures were over 501 nM and under 25%.
As for `Cc1ncsc1-c1ccc([C@H](C)NC(=O)[C@@H]2C[C@@H](O)CN2C(=O)[C@@H](NC(=O)CCCCCCCc2ccc(C(=O)N[C@H]3C(C)(C)[C@H](Oc4ccc(C#N)c(Cl)c4)C3(C)C)cc2)C(C)(C)C)cc1` [Example 763, (2S,4R)-1-((S)-2-(8-(4-(((1r,3r)-3-(3-chloro-4-cyanophenoxy)-2,2,4,4-tetramethylcyclobutyl)carbamoyl)phenyl)octan-amido)-3,3-dimethylbutanoyl)-4-hydroxy-N-((S)-1-(4-(4-methylthiazol-5-yl)phenyl)ethyl)pyrrolidine-2-carboxamide], under “VCaP cells”, the DC50 is under 50 nM. For the same molecule, the Dmax under setting [2] is over 71%.
As to `Cc1ncsc1-c1ccc([C@H](C)NC(=O)[C@@H]2C[C@@H](O)CN2C(=O)[C@@H](NC(=O)CCCCCCCCCc2ccc(C(=O)N[C@H]3C(C)(C)[C@H](Oc4ccc(C#N)c(Cl)c4)C3(C)C)cc2)C(C)(C)C)cc1` [Example 764, (2S,4R)-1-((S)-2-(10-(4-(((1r,3r)-3-(3-chloro-4-cyanophenoxy)-2,2,4,4-tetramethylcyclobutyl)carbamoyl)phenyl)decan-amido)-3,3-dimethylbutanoyl)-4-hydroxy-N-((S)-1-(4-(4-methylthiazol-5-yl)phenyl)ethyl)pyrrolidine-2-carboxamide], for the setting “VCaP cells”, the DC50 lay within 51 to 500 nM. Moreover, the Dmax under setting [2] lay in the range of 51 to 70%.
The corresponding values for `Cc1ncsc1-c1ccc([C@H](C)NC(=O)[C@@H]2C[C@@H](O)CN2C(=O)[C@@H](NC(=O)COCCN2CCN(c3ccc(C(=O)N[C@H]4C[C@H](Oc5ccc(C#N)c(Cl)c5)C4)cn3)CC2)C(C)(C)C)cc1` [Example 765, N-((1r,3r)-3-(3-chloro-4-cyanophenoxy)cyclobutyl)-6-(4-(2-(2-(((S)-1-((2S,4R)-4-hydroxy-2-(((S)-1-(4-(4-methylthiazol-5-yl)phenyl)ethyl)carbam-oyl)pyrrolidin-1-yl)-3,3-dimethyl-1-oxobutan-2-yl)amino)-2-oxoethoxy)ethyl)pipera-zin-1-yl)nicotinamide] are over 501 nM and under 25%.
For `Cc1ncsc1-c1ccc([C@H](C)NC(=O)[C@@H]2C[C@@H](O)CN2C(=O)[C@@H](NC(=O)CN2CCN(CCCOCc3cc(C(=O)N[C@@H](C)Cn4ccc(-c5ccc(C#N)c(C(F)(F)F)c5)n4)n[nH]3)CC2)C(C)(C)C)cc1` [Example 766] the same measures were over 501 nM and 26 to 50%.
Take `Cc1nc(-c2ccn(C[C@H](C)NC(=O)c3cc(COCCCN4CCN(CC(=O)N[C@H](C(=O)N5C[C@H](O)C[C@H]5C(=O)N[C@@H](C)c5ccc(-c6scnc6C)cc5)C(C)(C)C)CC4)[nH]n3)n2)ccc1C#N` [Example 767, N-((S)-1-(3-(5-cyano-6-methylpyridin-2-yl)-1H-pyrazol-1-yl)propan-2-yl)-5-((3-(4-(2-(((S)-1-((2S,4R)-4-hydroxy-2-(((S)-1-(4-(4-methylthiazol-5-yl)phenyl)ethyl)carbam-oyl)pyrrolidin-1-yl)-3,3-dimethyl-1-oxobutan-2-yl)amino)-2-oxoethyl)piperazin-1-yl)propoxy)methyl)-1H-pyrazole-3-carboxamide]: the DC50 (VCaP cells) was over 501 nM. Also, the Dmax under setting [2] lay in the range of 26 to 50%.
For `Cc1ncsc1-c1ccc([C@H](C)NC(=O)C2C[C@@H](O)CN2C(=O)C(NC(=O)CCCN2CCN(c3ccc(C(=O)N[C@H]4C(C)(C)[C@H](Oc5ccc(C#N)c(Cl)c5)C4(C)C)cn3)CC2)C(C)(C)C)cc1` (stereo partly drawn) [Example 768, N-((1r,3r)-3-(3-chloro-4-cyanophenoxy)-2,2,4,4-tetramethylcyclobutyl)-6-(4-(4-(((S)-1-((2S,4R)-4-hydroxy-2-(((S)-1-(4-(4-methylthiazol-5-yl)phenyl)ethyl)carbam-oyl)pyrrolidin-1-yl)-3,3-dimethyl-1-oxobutan-2-yl)amino)-4-oxobutyl)piperazin-1-yl)nicotinamide], under “VCaP cells”, the DC50 is over 501 nM. Besides, the Dmax under setting [2] was under 25%.
For `CC(C)[C@H](C(=O)N1C[C@H](O)C[C@H]1C(=O)NCc1ccc(Cl)cc1)N1Cc2ccc(N3CCN(CCCc4ccc(C(=O)N[C@H]5C(C)(C)[C@H](Oc6ccc(C#N)c(C(F)(F)F)c6)C5(C)C)cc4)CC3)cc2C1=O` [Example 769, (2S,4R)-N-(4-chlorobenzyl)-1-((R)-2-(6-(4-(3-(4-(((1r,3r)-3-(4-cyano-3-(trifluoromethyl)phenoxy)-2,2,4,4-tetramethylcyclobutyl)carbamoyl)phenyl)propyl)piperaizn-1-yl)-1-oxoisoindolin-2-yl)-3-methylbutanoyl)-4-hydroxypyrrolidine-2-carboxamide] the same measures were over 501 nM and under 25%.
The corresponding values for `CC(C)[C@@H](C(=O)N1C[C@H](O)C[C@H]1C(=O)NCc1ccc(Cl)cc1)N1Cc2ccc(N3CCN(CCCc4ccc(C(=O)N[C@H]5C(C)(C)[C@H](Oc6ccc(C#N)c(C(F)(F)F)c6)C5(C)C)cc4)CC3)cc2C1=O` [Example 770, (2S,4R)-N-(4-chlorobenzyl)-1-((S)-2-(6-(4-(3-(4-(((1r,3r)-3-(4-cyano-3-(trifluoromethyl)phenoxy)-2,2,4,4-tetramethylcylcobutyl)carbamoyl)phenyl)propyl)piperazin-1-yl)-1-oxoisoindolin-2-yl)-3-methylbutanoyl)-4-hydroxypyrrolidine-2-carboxamide] are over 501 nM and under 25%.
The corresponding values for `CC(C)[C@H](C(=O)N1C[C@H](O)C[C@H]1C(=O)NCc1ccc(C#N)cc1)N1Cc2ccc(N3CCN(CCCc4ccc(C(=O)N[C@H]5C(C)(C)[C@H](Oc6ccc(C#N)c(C(F)(F)F)c6)C5(C)C)cc4)CC3)cc2C1=O` [Example 771, (2S,4R)-1-((R)-2-(6-(4-(3-(4-(((1r,3r)-3-(4-cyano-3-(trifluoromethyl)phenoxy)-2,2,4,4-tetramethylcyclobutyl)carbamoyl)phenyl)propyl)piperazin-1-yl)-1-oxoisoindolin-2-yl)-3-methylbutanoyl)-N-(4-cyanobenzyl)-4-hydroxypyrrolidine-2-carboxamide] are over 501 nM and under 25%.
Take `CC(C)[C@@H](C(=O)N1C[C@H](O)C[C@H]1C(=O)NCc1ccc(C#N)cc1)N1Cc2ccc(N3CCN(CCCc4ccc(C(=O)N[C@H]5C(C)(C)[C@H](Oc6ccc(C#N)c(C(F)(F)F)c6)C5(C)C)cc4)CC3)cc2C1=O` [Example 772, (2S,4R)-1-((S)-2-(6-(4-(3-(4-(((1r,3r)-3-(4-cyano-3-(trifluoromethyl)phenoxy)-2,2,4,4-tetramethylcyclobutyl)carbamoyl)phenyl)propyl)piperazin-1-yl)-1-oxoisoindolin-2-yl)-3-methylbutanoyl)-N-(4-cyanobenzyl)-4-hydroxypyrrolidine-2-carboxamide]: for the setting “VCaP cells”, the DC50 was over 501 nM. The Dmax under setting [2] is under 25%.
